# Source: patent publication US7132261B2, “Orphan receptor” (Karo Bio AB, priority 1995, dated 2006)
# Where two headings read alike, the source gives them in different places.
# How the values were obtained:
# clone 29 protein (rERβ) [1] = target: T1, clone 29 protein (rERβ) (Rattus norvegicus, UniProt Q62986); test: Ligand competition studies against [3H]E2, clone 29 protein in reticulocyte lysate; type: binding; design: The open reading frame encodes a protein of 485 amino acid residues (counted from the first methionine); conditions: for times less effective as competitor (compared with unlabelled E2): 5 nM [3H]E2, 16 h at 8° C.; for efficient competition with [3H]E2 for binding: 5 nM [3H]E2, highest concentrations used (1000 fold excess)
# T1 sequence (Q62986 46-530): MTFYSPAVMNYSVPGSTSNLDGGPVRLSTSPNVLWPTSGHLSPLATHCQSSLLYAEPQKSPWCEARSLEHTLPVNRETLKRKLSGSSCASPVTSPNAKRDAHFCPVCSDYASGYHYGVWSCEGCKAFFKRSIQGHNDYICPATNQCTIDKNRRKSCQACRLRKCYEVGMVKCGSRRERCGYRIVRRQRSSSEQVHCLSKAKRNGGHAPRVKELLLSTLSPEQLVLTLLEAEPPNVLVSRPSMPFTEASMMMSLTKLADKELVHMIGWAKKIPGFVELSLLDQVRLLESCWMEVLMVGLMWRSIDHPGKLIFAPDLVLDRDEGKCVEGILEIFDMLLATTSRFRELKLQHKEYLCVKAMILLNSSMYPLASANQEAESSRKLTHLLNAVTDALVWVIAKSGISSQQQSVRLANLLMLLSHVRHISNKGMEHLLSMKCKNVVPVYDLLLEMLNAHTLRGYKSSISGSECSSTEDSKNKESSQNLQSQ
# Excerpt: Bound and unbound steroids were separated with a dextran-coated charcoal assay (Ekman, P., Barrack, E. R., Greene, G. L., Jensen, E. V., & Walsh, P. C. (1983) J. Clin. Endocrinol Metab. 57, 166–176).
# clone 29 protein (rERβ) [2] = target: T1, clone 29 protein (rERβ); test: Transactivation analysis in CHO-cells (ERE-ALP reporter, clone 29 expression vector); type: cell-based; design: The open reading frame encodes a protein of 485 amino acid residues (counted from the first methionine); expressed in transfected cells; host or cells: CHO-K1 cells transiently transfected with pCMV29 and pERE-ALP; conditions: for stimulation of transcriptional activity of clone 29 protein: highest concentration tested 1000 nM
# Excerpt: The expression vector pCMV29 was constructed by inserting the 2.6 kb clone 29 fragment in the EcoRI site of the expression vector pCMV5 (Andersson, S., Davis, D.L., Dahlbäck, H., Jörnvall, H., & Russell, D.W. (1989) J. Biol. Chem. 264, 8222–8229). The pERE-ALP reporter construct contains a secreted form of the plancental alkaline phosphatase gene (Berger, J., Hauber, J., Hauber, R., Geiger, R., & Cullen, B.R. (1988) Gene 66 1–10) and the MMTV-LTR in which the glucocorticoid response elements were replaced by the vitellogenin promoter estrogen response element (ERE). The vector pCMV29 containing the clone 29 fragment was deposited with NCIMB, Ferguson Building, Craibstone Estate, Bucksburn, Aberdeen, Scotland, UK AB21 9YA in accordance with the Budapest Treaty on the International Recognition of the Deposit of Microorganisms for the Purposes of Patent Procedure on 26 May 2006, under accession No. NCIMB 41404. The deposit was named “Escherichia coli DH5 prat ER (CmV29)”. All restrictions on the availability to the public of the material deposited will be irrevocably removed upon the granting of a patent.
# CHO-K1 cells were seeded in 12-well plates at approximately 1.7×10^5 cells per well in phenol-red free Ham F12 medium with 5% FCS (dextran-coated charcoal treated) and 2 mM Lglutamine. After 24 h the cells were transfected with 250 ng pERE-ALP vector and 50 ng pCMV29 using lipofectamine (Gibco) according to the manufacturer's instructions. After five hours of incubation the cells were washed and refed with 0.5 ml phenol-red free Coon's F-12 medium containing 5% serum substitute (SRC 3000, Tissue Culture Services Ltd., Botolph Claydon, Buckingham, UK) 2 mM Lglutamine and 50 μg/ml gentamicin plus hormones as indicated. After 48 h the medium was assayed for alkaline phosphatase (ALP) activity by a chemiluminescence assay. A 10 μl aliquot of the cell culture medium was mixed with 200 μl assay buffer (10 mM diethanolamine pH 10.0 1 mM MgCl2 and 0.5 mM CSPD (Tropix Inc. Boston, USA) ) and incubated for 20 min at 37° C. before measurement in a microplate luminometer (Luminoskan; Labsystems, Finland) with integral measurement for 1 second. The ALP activity of ERE-reporter alone was set at 1.
# To investigate the transcriptional regulatory properties of clone 29 protein, we performed co-transfection experiments in which CHO cells were transfected with a clone 29 protein expression vector and/or an estrogen-responsive reporter gene construct. […] CHO-cells were transiently transfected with the ERE-reporter plasmid and the clone 29 protein expression plasmid. […] Alkaline phosphatase activity (ALP) was measured as described and the activity in the absence of ligand (control) was set at 1.
# rERβ = target: T2, rERβ (Rattus norvegicus, UniProt Q62986); test: Equilibrium binding saturation experiments with [125I]-E2, rERβ
# T2 construct: Clone 29 protein consists of 485 amino acid residues; made in house; host or cells: rabbit reticulocyte lysate in vitro translation (Promega)
# T2 sequence (Q62986 46-530): as above
# Excerpt: Equilibrium binding saturation experiments (Kd-determinations)
SMILES,times less effective as competitor (compared with unlabelled E2) (clone 29 protein (rERβ) [1]) [times],efficient competition with [3H]E2 for binding (clone 29 protein (rERβ) [1]),stimulation of transcriptional activity of clone 29 protein (clone 29 protein (rERβ) [2]),further results
CC/C(=C(/CC)c1ccc(O)cc1)c1ccc(O)cc1 [diethylstilbestrol],5,,,
C[C@]12CC[C@H]3[C@@H](CCC4=CC(=O)CC[C@@]43C)[C@@H]1CC[C@@H]2O [testosterone],,"Neither testosterone, progesterone, corticosterone nor 5α-androstane-3α,17β-diol were efficient competitors",could not stimulate transcriptional activity,
C[C@]12C[C@H](O)[C@H]3[C@@H](CCC4=CC(=O)CC[C@@]43C)[C@@H]1CC[C@@H]2C(=O)CO [corticosterone],,"Neither testosterone, progesterone, corticosterone nor 5α-androstane-3α,17β-diol were efficient competitors",,
CCCCN(C)C(=O)CCCCCCCCCC[C@@H]1Cc2cc(O)ccc2[C@H]2CC[C@]3(C)[C@@H](O)CC[C@H]3[C@H]12 [ICI-1624384],,,,"suppression of the constitutive transcriptional activity of clone 29 protein (clone 29 protein (rERβ) [2]; no E2 added, not shown): could be suppressed"
C[C@]12CC[C@@H]3c4ccc(O)cc4CC[C@H]3[C@@H]1C[C@@H](O)[C@@H]2O [estriol],15,,,
"C[C@]12CC[C@@H](O)C[C@@H]1CC[C@@H]1[C@@H]2CC[C@]2(C)[C@@H](O)CC[C@@H]12 [5α-androstane-3α,17β-diol]",150,"Neither testosterone, progesterone, corticosterone nor 5α-androstane-3α,17β-diol were efficient competitors",could not stimulate transcriptional activity,
"C[C@]12CC[C@@H]3c4ccc(O)cc4CC[C@H]3[C@@H]1C[C@@H](I)[C@@H]2O [[^125I]-E2, 16α[^125I]-17β-estradiol]",,,,Kd (rERβ; read-out: Kd (Hill-plot)): 0.24 nM; Kd (rERβ; read-out: Kd (Scatchard-plot)): 0.42 nM
"C[C@]12CC[C@H](O)C[C@@H]1CC[C@@H]1[C@@H]2CC[C@]2(C)[C@@H](O)CC[C@@H]12 [5α-androstane-3β,17β-diol]",,,"could stimulate transcriptional activity, albeit at higher concentrations",
CC(=O)[C@H]1CC[C@H]2[C@@H]3CCC4=CC(=O)CC[C@]4(C)[C@H]3CC[C@]12C [progesterone],,"Neither testosterone, progesterone, corticosterone nor 5α-androstane-3α,17β-diol were efficient competitors",could not stimulate transcriptional activity,
